Data: ChEMBL document CHEMBL3045024, “Synthesis, structure and insecticidal activities of some novel amides containing N-pyridylpyrazole moeities” (2012)
The source made the active and inactive calls. The rule behind the calls is not given here.

Legend:
Mythimna separata [1] = test: Insecticidal activity against fourth-instar larvae of Mythimna separata (Oriental armyworm) reared on compound pre-treated corn leaves assessed as mortality at 100 ug/mL measured 72 hr post compound treatment by leaf-dipping assay; type: functional
Plutella xylostella [2] = test: Insecticidal activity against Plutella xylostella (diamondback moth) second-instar larvae infested on compound pre-treated cabbage leaves assessed as mortality at 50 ug/mL measured 3 days post compound treatment by leaf-dipping assay; type: functional
Culex pipiens pallens = test: Insecticidal activity against Culex pipiens pallens (mosquito) fourth-instar larvae assessed as mortality at 2 ug/mL measured 72 hr post compound treatment; type: functional
Plutella xylostella [3] = test: Insecticidal activity against Plutella xylostella (diamondback moth) second-instar larvae infested on compound pre-treated cabbage leaves assessed as mortality at 100 ug/mL measured 3 days post compound treatment by leaf-dipping assay; type: functional
Mythimna separata [4] = test: Insecticidal activity against fourth-instar larvae of Mythimna separata (Oriental armyworm) reared on compound pre-treated corn leaves assessed as mortality at 50 ug/mL measured 72 hr post compound treatment by leaf-dipping assay; type: functional
Mythimna separata [5] = test: Insecticidal activity against fourth-instar larvae of Mythimna separata (Oriental armyworm) reared on compound pre-treated corn leaves assessed as mortality at 10 ug/mL measured 72 hr post compound treatment by leaf-dipping assay; type: functional
Plutella xylostella [6] = test: Insecticidal activity against Plutella xylostella (diamondback moth) second-instar larvae infested on compound pre-treated cabbage leaves assessed as mortality at 200 ug/mL measured 3 days post compound treatment by leaf-dipping assay; type: functional
Mythimna separata [7] = test: Insecticidal activity against fourth-instar larvae of Mythimna separata (Oriental armyworm) reared on compound pre-treated corn leaves assessed as mortality at 200 ug/mL measured 72 hr post compound treatment by leaf-dipping assay; type: functional
Plutella xylostella [8] = test: Insecticidal activity against Plutella xylostella (diamondback moth) second-instar larvae infested on compound pre-treated cabbage leaves assessed as mortality at 25 ug/mL measured 3 days post compound treatment by leaf-dipping assay; type: functional
Spodoptera exigua [9] = test: Insecticidal activity against Spodoptera exigua third-instar larvae infested on compound pre-treated cabbage leaves assessed as mortality at 50 ug/mL measured 3 days post compound treatment by leaf-dipping assay; type: functional
Spodoptera exigua [10] = test: Insecticidal activity against Spodoptera exigua third-instar larvae infested on compound pre-treated cabbage leaves assessed as mortality at 200 ug/mL measured 3 days post compound treatment by leaf-dipping assay; type: functional
Mythimna separata [11] = test: Insecticidal activity against fourth-instar larvae of Mythimna separata (Oriental armyworm) reared on compound pre-treated corn leaves assessed as mortality at 25 ug/mL measured 72 hr post compound treatment by leaf-dipping assay; type: functional
Spodoptera exigua [12] = test: Insecticidal activity against Spodoptera exigua third-instar larvae infested on compound pre-treated cabbage leaves assessed as mortality at 100 ug/mL measured 3 days post compound treatment by leaf-dipping assay; type: functional
Spodoptera exigua [13] = test: Insecticidal activity against Spodoptera exigua third-instar larvae infested on compound pre-treated cabbage leaves assessed as mortality at 25 ug/mL measured 3 days post compound treatment by leaf-dipping assay; type: functional
Mythimna separata [14] = test: Insecticidal activity against fourth-instar larvae of Mythimna separata (Oriental armyworm) reared on compound pre-treated corn leaves assessed as induction of abnormal symptoms at 10 ug/mL measured 36 hr post compound treatment by leaf-dipping assay; type: functional, organism-based
Mythimna separata [15] = test: Insecticidal activity against fourth-instar larvae of Mythimna separata (Oriental armyworm) reared on compound pre-treated corn leaves assessed as mortality at 5 ug/mL measured 72 hr post compound treatment by leaf-dipping assay; type: functional

SMILES | mortality at 100 µg/mL (Mythimna separata [1]) [%] | mortality at 50 µg/mL (Plutella xylostella [2]) [%] | mortality at 2 µg/mL (Culex pipiens pallens) [%] | mortality at 100 µg/mL (Plutella xylostella [3]) [%] | mortality at 50 µg/mL (Mythimna separata [4]) [%] | mortality at 10 µg/mL (Mythimna separata [5]) [%] | mortality at 200 µg/mL (Plutella xylostella [6]) [%] | mortality at 200 µg/mL (Mythimna separata [7]) [%] | mortality at 25 µg/mL (Plutella xylostella [8]) [%] | mortality at 50 µg/mL (Spodoptera exigua [9]) [%] | mortality at 200 µg/mL (Spodoptera exigua [10]) [%] | mortality at 25 µg/mL (Mythimna separata [11]) [%] | mortality at 100 µg/mL (Spodoptera exigua [12]) [%] | mortality at 25 µg/mL (Spodoptera exigua [13]) [%] | Activity (Mythimna separata [14]) | mortality at 5 µg/mL (Mythimna separata [15]) [%]
Cc1cc(Cl)cc(C)c1NC(=O)c1cc(Br)nn1-c1ncccc1Cl | 100 | 97 | 30 | 100 | 100 | 20 | 100 | 100 | 94 | 98 | 100 | 80 | 100 | 94 |  | 
O=C(Nc1cc(Cl)ccc1Cl)c1cc(Br)nn1-c1ncccc1Cl |  |  | 10 |  |  |  |  | 0 |  |  |  |  |  |  |  | 
O=C(Nc1ccc(Cl)cc1)c1cc(Br)nn1-c1ncccc1Cl | 100 | 100 | 10 | 98 | 100 | 0 | 100 | 100 | 97 | 100 | 100 | 70 | 100 | 100 |  | 
O=C(Nc1ccc(F)cc1)c1cc(Br)nn1-c1ncccc1Cl | 100 | 99 | 0 | 98 | 100 |  | 100 | 100 | 88 | 92 | 95 | 50 | 100 | 96 |  | 
O=C(Nc1ccc(Cl)cc1[N+](=O)[O-])c1cc(Br)nn1-c1ncccc1Cl |  |  | 40 |  |  |  |  | 10 |  |  |  |  |  |  |  | 
O=C(Nc1cccc(Cl)c1)c1cc(Br)nn1-c1ncccc1Cl |  |  |  |  |  |  |  | 0 |  |  |  |  |  |  |  | 
Cc1ccc(NC(=O)c2cc(Br)nn2-c2ncccc2Cl)c(C)c1 | 70 |  |  |  | 0 |  |  | 100 |  |  |  |  |  |  |  | 
O=C(Nc1ccc([N+](=O)[O-])cc1)c1cc(Br)nn1-c1ncccc1Cl | 90 |  | 20 |  | 20 |  |  | 100 |  |  |  |  |  |  |  | 
Cc1cc(Br)cc(C)c1NC(=O)c1cc(Br)nn1-c1ncccc1Cl | 100 | 0 | 30 | 72 | 100 | 30 | 89 | 100 |  | 89 | 100 | 100 | 100 | 93 |  | 
Cc1cccc(C)c1NC(=O)c1cc(Br)nn1-c1ncccc1Cl | 80 |  |  |  | 40 |  |  | 100 |  |  |  |  |  |  |  | 
Cc1cccc([N+](=O)[O-])c1NC(=O)c1cc(Br)nn1-c1ncccc1Cl | 80 |  | 50 |  | 20 |  |  | 100 |  |  |  |  |  |  |  | 
O=C(Nc1ccc([N+](=O)[O-])cc1Br)c1cc(Br)nn1-c1ncccc1Cl | 100 | 96 | 40 | 98 | 30 |  | 100 | 100 | 90 | 100 | 100 |  | 100 | 100 |  | 
Cc1cc([N+](=O)[O-])ccc1NC(=O)c1cc(Br)nn1-c1ncccc1Cl | 100 |  | 40 |  | 100 | 50 |  | 100 |  |  |  | 80 |  |  |  | 
Cc1cc(Cl)cc([N+](=O)[O-])c1NC(=O)c1cc(Br)nn1-c1ncccc1Cl | 100 | 84 | 20 | 89 | 100 |  | 95 | 100 | 76 | 95 | 98 | 60 | 100 | 92 |  | 
O=C(Nc1ccc(I)cc1)c1cc(Br)nn1-c1ncccc1Cl | 100 |  | 100 |  | 50 |  |  | 100 |  |  |  |  |  |  |  | 
Cc1cc([N+](=O)[O-])cc(Cl)c1NC(=O)c1cc(Br)nn1-c1ncccc1Cl | 100 |  |  |  | 100 | 30 |  | 100 |  |  |  | 70 |  |  |  | 
CNC(=O)c1cc(Cl)cc(C)c1NC(=O)c1cc(Br)nn1-c1ncccc1Cl [CHLORANTRANILIPROLE] |  | 100 | 100 |  |  |  |  |  | 94 | 100 |  |  |  | 100 | Active | 100
O=C(Nc1ccc([N+](=O)[O-])cc1Cl)c1cc(Br)nn1-c1ncccc1Cl | 100 | 0 | 80 | 72 | 100 | 80 | 78 | 100 |  | 78 | 91 | 100 | 86 | 65 | Active | 0
CCOc1ccc(NC(=O)c2cc(Br)nn2-c2ncccc2Cl)cc1 | 0 |  | 30 |  |  |  |  | 100 |  |  |  |  |  |  |  | 
O=C(Nc1ccc(F)c(Cl)c1)c1cc(Br)nn1-c1ncccc1Cl | 0 |  |  |  |  |  |  | 100 |  |  |  |  |  |  |  | 
